Measured values published in US8871787B2, “Stable crystalline salt of (R)-3-fluorophenyl-3,4,5-trifluorobenzylcarbamic acid 1-azabicyclo [2.2.2]oct-3-yl ester” (Laboratorios Salvat, S.A., priority 2007, dated 2014).

Assays:
[1] = Physicochemical stability and hygroscopicity of the salts on storage; conditions: for physicochemical stability (in words): storage or formulation, room and enhanced temperature, high humidity, aqueous media
Excerpt: Compound I is also disclosed in WO2004000840. On the other hand, compound I is exemplified as hydrochloride salt in WO2003053966 as an intermediate in the synthesis of other compounds. […] Upon storage or formulation of said known salt, progressive decomposition and concomitantly an increase in the amount and number of impurities was observed. Obviously, this problem is further aggravated under demanding environmental conditions such as light, heat, humidity or acidity.
It has been particularly difficult to find stable, crystalline forms of (R)-3-fluorophenyl-3,4,5-trifluorobenzylcarbamic acid 1-azabicyclo[2.2.2]oct-3-yl ester. […] Thus, there remains a need for a salt of (R)-3-fluorophenyl-3,4,5-trifluorobenzylcarbamic acid 1-azabicyclo[2.2.2]oct-3-yl ester that forms a crystalline solid that has a desirable morphology, be stable in the presence of water and under conditions of a high relative humidity (above 85%) and can readily be prepared on a large scale.

[2] = Salt screening of compound I with several acids (aspect of the salt); assay type: physicochemical; conditions: free base and acid in hot ethanol, cooled, solvent evaporated
Method: To select the most suitable salt of compound I and minimize the undesirable hygroscopic properties of the hydrochloride, several acids were tested. The free base of compound I was dissolved in hot ethanol, and then acid solution in hot ethanol was added. The mixture was then stirred and heated for 30 min. After cooling to room temperature, the solvent was removed by evaporation. […]

Compound: O=C(O)C(O)C(O)C(=O)O.O=C(O[C@H]1CN2CCC1CC2)N(Cc1cc(F)c(F)c(F)c1)c1cccc(F)c1 [D-tartrate salt, D-tartrate salt of (R)-3-fluorophenyl-3,4,5-trifluorobenzylcarbamic acid 1-azabicyclo[2.2.2]oct-3-yl ester]
- hygroscopicity (in words) [1]: relatively non-hygroscopic
- physicochemical stability (in words) [1]: more stable than the hydrochloride salt
- physicochemical stability (in words) ([1]; listed as Form I): stable at room temperature
- Aspect of the salt ([2]; listed as D-Tartaric): White solid crystal precipitated in EtOH.
- Aspect of the salt ([2]; listed as salt obtained with D-tartaric acid): non-hygroscopic solid crystal
